Data: paper PMC6303142 (Saudi Journal of Biological Sciences, 2016)
Values after ≈ are worked out from the molar mass of the structure shown. Where two headings read alike, the source gives them in different places.

Tests used:
[1] = test system: S. aureus (ATCC 25923 and F7 strains) biofilm; assay: Biofilm formation; assay type: cell-based, Staphylococcus aureus; settings: 1/2 MIC, 24 h, F7 and ATCC 25923 strains, crystal violet
Staphylococcus aureus = assay: Broth microdilution MIC/MBC against planktonic cells; assay type: cell-based
sPLA2 = assay type: biochemical
[2] = test system: human hepatoma HepG2 cells; settings: ref Zampini et al. (2008); cited from earlier work
COX-2 = molecular target: T1, COX-2 (Homo sapiens, UniProt P35354); assay: Cyclooxygenase; assay type: biochemical
T1 sequence (P35354 18-604): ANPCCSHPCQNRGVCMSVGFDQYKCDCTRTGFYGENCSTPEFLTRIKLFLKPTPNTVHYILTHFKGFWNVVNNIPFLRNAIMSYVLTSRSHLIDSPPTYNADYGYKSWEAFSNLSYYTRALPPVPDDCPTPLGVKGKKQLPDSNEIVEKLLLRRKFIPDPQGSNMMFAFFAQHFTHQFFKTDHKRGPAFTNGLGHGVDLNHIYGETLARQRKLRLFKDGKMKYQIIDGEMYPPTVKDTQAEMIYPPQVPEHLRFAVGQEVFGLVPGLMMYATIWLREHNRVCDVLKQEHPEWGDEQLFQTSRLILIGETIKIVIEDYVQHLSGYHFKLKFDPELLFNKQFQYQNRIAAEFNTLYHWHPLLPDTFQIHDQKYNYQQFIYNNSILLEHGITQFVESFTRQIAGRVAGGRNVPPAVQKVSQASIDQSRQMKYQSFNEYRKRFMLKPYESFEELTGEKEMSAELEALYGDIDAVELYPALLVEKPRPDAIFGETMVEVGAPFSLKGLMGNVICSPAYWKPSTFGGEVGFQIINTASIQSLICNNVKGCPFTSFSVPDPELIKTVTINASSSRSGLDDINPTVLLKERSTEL

soybean LOX-1 = molecular target: T2, soybean LOX-1 (Glycine max, UniProt P08170); assay: Lipoxygenase; assay type: biochemical
T2 sequence (P08170 1-839): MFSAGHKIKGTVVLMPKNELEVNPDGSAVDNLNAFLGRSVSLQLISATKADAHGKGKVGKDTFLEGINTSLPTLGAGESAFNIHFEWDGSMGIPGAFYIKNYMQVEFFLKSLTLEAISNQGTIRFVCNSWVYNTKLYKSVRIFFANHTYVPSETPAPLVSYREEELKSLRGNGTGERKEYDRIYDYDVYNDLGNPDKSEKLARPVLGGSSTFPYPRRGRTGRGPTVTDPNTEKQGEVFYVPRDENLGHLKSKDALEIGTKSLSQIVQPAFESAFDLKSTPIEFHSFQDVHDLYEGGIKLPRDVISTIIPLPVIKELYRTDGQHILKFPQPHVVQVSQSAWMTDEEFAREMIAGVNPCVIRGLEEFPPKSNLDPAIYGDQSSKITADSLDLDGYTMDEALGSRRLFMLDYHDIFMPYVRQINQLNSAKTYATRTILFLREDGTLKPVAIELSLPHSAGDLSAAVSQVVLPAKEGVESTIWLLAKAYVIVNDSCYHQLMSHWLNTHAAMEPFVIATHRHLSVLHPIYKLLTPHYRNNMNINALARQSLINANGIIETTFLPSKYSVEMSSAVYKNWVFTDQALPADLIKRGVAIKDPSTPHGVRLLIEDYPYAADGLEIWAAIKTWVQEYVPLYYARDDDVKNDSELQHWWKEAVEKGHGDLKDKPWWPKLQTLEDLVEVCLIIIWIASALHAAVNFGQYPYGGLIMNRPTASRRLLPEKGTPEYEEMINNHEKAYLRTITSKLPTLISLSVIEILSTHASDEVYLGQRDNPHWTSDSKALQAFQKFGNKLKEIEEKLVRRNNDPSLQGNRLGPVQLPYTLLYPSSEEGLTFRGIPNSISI

S. aureus F7 strain = assay: Electron microscopy; assay type: cell-based, Staphylococcus aureus; settings: DHC at MIC, 24 h, SEM and TEM
Artemia salina = assay: General
[3] = ATCC29213, S. aureus ATCC 29213, control strain
[4] = S. aureus clinical isolate 5 (F5), Met^r Oxa^r
[5] = S. aureus clinical isolate 7 (F7), Met^r Oxa^r Gen^r
[6] = S. aureus clinical isolate 8 (F8), Met^r Oxa^r
[7] = S. aureus clinical isolate 23 (F23), Met^r Oxa^r
[8] = S. aureus clinical isolate 31 (F31), Met^r Oxa^r Van^s

Compound | MBC (Staphylococcus aureus; [3]) [µg/mL] | MIC (Staphylococcus aureus; [3]) [µg/mL] | MBC (Staphylococcus aureus; [4]) [µg/mL] | MIC (Staphylococcus aureus; [4]) [µg/mL] | MBC (Staphylococcus aureus; [5]) [µg/mL] | MIC (Staphylococcus aureus; [5]) [µg/mL] | MBC (Staphylococcus aureus; [6]) [µg/mL] | MIC (Staphylococcus aureus; [6]) [µg/mL] | MBC (Staphylococcus aureus; [7]) [µg/mL] | MIC (Staphylococcus aureus; [7]) [µg/mL] | MBC (Staphylococcus aureus; [8]) [µg/mL] | MIC (Staphylococcus aureus; [8]) [µg/mL] | Inhibition (%) sPLA2 (sPLA2; 10 μg/mL) [%] | IC50 (COX-2) [µM] | IC50 (soybean LOX-1) [µM] | also measured
O=C(/C=C/c1ccccc1)c1ccc(O)cc1O [DHC, 2′,4′-dihydroxychalcone] | 50 (≈ 208 µM) | 50 (≈ 208 µM) | 100 (≈ 416 µM) | 25 (≈ 104 µM) | 100 (≈ 416 µM) | 25 (≈ 104 µM) | 100 (≈ 416 µM) | 25 (≈ 104 µM) | 200 (≈ 832 µM) | 25 (≈ 104 µM) | 200 (≈ 832 µM) | 100 (≈ 416 µM) | 60.50 ± 2.90 | 7.16 | 414 | biofilm formation inhibition [1]: most active pure compound; genotoxicity [2]: did not find genotoxicity; morphological changes in the cell appearance (S. aureus F7 strain): visible cellular aggregation, blebs on the cellular surface and cytoplasmic coagulation
O=c1c(O)c(-c2ccccc2)oc2cc(O)ccc12 [DHF, 3,7-dihydroxyflavone] | > 500 | 400 (≈ 1570 µM) | > 500 | 200 (≈ 787 µM) | > 500 | 200 (≈ 787 µM) | 400 (≈ 1570 µM) | 25 (≈ 98.3 µM) | > 500 | 200 (≈ 787 µM) | > 500 | 200 (≈ 787 µM) | 2.70 ± 0.20 | 100 | 227 | activity on sPLA2 (sPLA2; at the concentration assayed (10 μg/mL)): not active
COc1ccc2cc([C@H](C)C(=O)O)ccc2c1 [Naproxen, reference compound] |  |  |  |  |  |  |  |  |  |  |  |  |  |  |  | Inhibition (%) sPLA2 (sPLA2): 6.00 ± 0.40%
COc1c(O)ccc(C(=O)/C=C/c2ccccc2)c1O [DHMC, 2′,4′-dihydroxy-3′-methoxychalcone] | 200 (≈ 740 µM) | 200 (≈ 740 µM) | 200 (≈ 740 µM) | 200 (≈ 740 µM) | 200 (≈ 740 µM) | 200 (≈ 740 µM) | 200 (≈ 740 µM) | 200 (≈ 740 µM) | 200 (≈ 740 µM) | 100 (≈ 370 µM) | 200 (≈ 740 µM) | 200 (≈ 740 µM) | 38.18 ± 1.80 |  | 235 | activity against COX-2 (COX-2; tested concentrations 10–150 μg/mL): not active
O=C1CC(c2ccccc2)Oc2cc(O)ccc21 (stereo not drawn) [HF, 7-hydroxyflavanone] | > 500 |  | > 500 |  | 200 (≈ 832 µM) |  | > 500 |  | > 500 |  | > 500 |  |  |  |  | 
[Na+].[Na+].[O]=[Cr](=[O])([O-])[O][Cr](=[O])(=[O])[O-] [sodium dichromate] |  |  |  |  |  |  |  |  |  |  |  |  |  |  |  | LC50 (concentration that kills 50% of the A. salina larvae) (Artemia salina): 30 µg/mL
